# Tests used:
# [1] = Delayed parenteral (ip) chelation treatment of mice contaminated iv with ^238Pu-citrate; format: in vivo, Swiss-Webster mice; details: for adverse effects at the dose levels used: both studies (delayed and prophylactic treatment); for sustained action beyond 24 hours after treatment: cumulative ^238Pu excretion, FIG. 4; for ^238Pu excretion pathway enhanced by treatment: independent of post-contamination treatment time, FIG. 5; for time by which rates of elimination became slower than in control animals: prompt treatment 1 hour post-contamination; for ^238Pu elimination, total body burden and tissue content versus saline-treated controls: 7 days after treatment
# Experimental: (§1) A stock solution of ^238Pu-nitrate in 4 M HNO3 was purchased from Eckert and Ziegler Isotope Products (Valencia, CA, USA) and used to prepare injection solutions. Contamination doses consisted of 0.2 mL aliquots of solutions containing 0.74 kBq (1.16 ng) of ^238Pu in 0.008 M sodium citrate and 0.14 M NaCl, pH 4. The ligands 3,4,3-LI(1,2-HOPO) and 5-LIO(Me-3,2-HOPO) were prepared by Synthetech, Inc. (Albany, Oreg., USA) and Albany Molecular Research, Inc. (Albany, NY, USA), respectively, as described previously. DTPA was obtained from Sigma-Aldrich (St. Louis, Mo., USA) and was formulated as Ca-DTPA using CaCO3 and NaOH, similarly to the formerly available drug product commercialized by Hameln Pharmaceuticals gmbh (Hameln, Germany). Ligand solutions were prepared such that the selected dosages ([…] for Ca-DTPA, 30 or 100 mol/kg for 3,4,3-LI(1,2-HOPO), and 100 or 200 mol/kg for 5-LIO(Me-3,2-HOPO)) were contained in 0.5 mL of 0.14 M NaCl, with the pH adjusted to 7.4-8.4 with 1 N NaOH. All solutions were filter-sterilized (0.22 μm) prior to administration. The concentration of each solution was verified by high-performance liquid chromatography, following modified published methods.
# (§2) All procedures and protocols used in the described in vivo studies were reviewed and approved by the Institutional Animal Care and Use Committee of Lawrence Berkeley National Laboratory and were performed in AAALAC accredited facilities. The animals used were young adult (86±6 days old for delayed treatment experiment and 90±3 days old for prophylactic treatment experiment) female (30.7±4.0 g for delayed treatment experiment and 30.8±1.6 g for prophylactic treatment experiment) Swiss-Webster mice (Simonsen Laboratories, Gilroy, Calif., USA). Gross body and tissue compositions, plasma, extracellular fluid, and red cell volumes of the whole body, major tissues and organs of these mice (intact or bled 25 to 40% of their total blood volume) have been determined previously. Mice were kept under a 12-hour light cycle with controlled temperature (18-22° C.) and relative humidity (30-70%), and were given water and food ad libitum. Each group of mice was housed together in a plastic stock cage lined with a 0.5 cm layer of highly absorbent low-ash pelleted cellulose bedding (ALPHA-dri®) for separation of urine and feces. Intravenous (iv) injections into a warmed lateral tail vein, intraperitoneal (ip) injections, oral administrations (po, through gastric intubation) and euthanasia were performed under isoflurane anesthesia. Treatment dose volumes were adjusted based on the weight of the mouse, with a 0.5 mL volume corresponding to a 35 g mouse. To probe the effect of delayed treatment, groups of five mice were injected iv with a single dose of ^238Pu-citrate, and ligand or control saline solutions were administered ip once at the following post-contamination treatment times: 1 h, 5 h, 16 h, 24 h, 3 d, 7 d. Excreta were collected daily for 7 days. Animals were euthanized 7 days after treatment. To probe the effect of prophylactic treatment, groups of five mice were first administered ligand or control saline solutions ip or po once at the following pre-contamination treatment times: −1 h, −6 h, −16 h, −24 h, −30 h, −40 h, −48 h. Mice were then injected iv with a single dose of ^238Pu-citrate and excreta were collected daily for 3 days. Animals were euthanized 3 days (72 h) after contamination. Mice were euthanized by cervical dislocation over their respective cage to collect the urine expelled at death, and immediately wrapped in plastic and frozen for later dissection.
# (§3) After partial thawing of the frozen mice, livers and kidneys were dissected, and the abdominal tissue remainder (ATR, which includes intact gastrointestinal (GI) tract, reproductive organs, spleen, urinary bladder, and abdominal fat) was removed. The livers, kidneys, ATR, and partially eviscerated carcasses were managed as individual samples. […]
# [2] = Prophylactic parenteral or oral chelation treatment of mice before iv ^238Pu-citrate contamination; format: in vivo, Swiss-Webster mice; details: for prophylactic window with significant reductions in total body, skeleton and liver ^238Pu: oral administration, versus saline controls; for prophylactic window with significant reduction of body and tissue ^238Pu burden: parenteral (ip) administration prior to contamination
# Experimental: as §1, §2, §3
# [3] = Complex stability constant in vitro, Pu(IV); format: binding
# Excerpt: (§4) The mechanism of action of 3,4,3-LI(1,2-HOPO) is a chelation mechanism, in which the compound binds the targeted actinide and forms a stable complex that can be eliminated through excretion pathways. Chelation is likely to be clinically efficacious if the affinity of the chelating agent for the targeted actinide metal ion is higher than those of potential biological ligands (such as proteins and bone matrices) and if its affinity for the targeted actinide metal ion is more specific than for essential divalent metal ions. A quantitative tool to predict the efficacy of a chelating agent and confirm its potential for actinide chelation is the determination of the corresponding actinide complex stability constants in vitro. As outlined in Example 2 below, these constants were evaluated for metals such as Pu(IV) (Log β110>41.5) or Cm(III) (Log β110=21.8), and support the chelation mechanism of action by 3,4,3-LI(1,2-HOPO).
# [4] = Complex stability constant in vitro, Cm(III); format: binding
# Excerpt: as §4
# [5] = Complex stability constant in vitro, Gd(III); format: binding
# Excerpt: as §4
# [6] = Gd-153 decorporation in mice injected with ^153Gd citrate (Example 9); format: in vivo; details: for excretion pathway: Gd-153
# Experimental: The present example is an evaluation of the metal-removal effectiveness of various molecules, including 3,4,3-LI(1,2-HOPO) and DTPA. The arrangements tested (which compounds, how much, how long pre or post-contamination the compound was administered, etc.) are outlined in Table 9.1.
# The results of the various test arrangements in Table 9.1 are detailed in FIGS. 8A-8Q. The data is plotted as a percent of recovered dose (%RD), with whole animal and specific tissue isotope content determine at a unique time point (4 days post metal challenge) while excreta are determined daily until necropsy. […] The almost-exclusively-fecal excretion pathway of 3,4,3-LI(1,2-HOPO) is also remarkably different from that of DTPA (urinary). […] FIGS. 8A-8C depict a general overview of the results. FIG. 8D depicts a comparative analysis of the recovered dose in the body vs excreta. FIGS. 8E-8P depict a break down by tissue type, including brain (FIG. 8E), Thymus (FIG. 8F), heart (FIG. 8G), lungs (FIG. 8H), spleen (FIG. 8I), kidneys (FIG. 8J), abdominal remaining tissue (ART, FIG. 8K), all other soft tissues (SOFT, FIG. 8L), liver (FIG. 8M), and skeleton (SKEL, FIG. 8N). FIGS. 8O and 8P show the total urinary and fecal excretion at the time of necropsy. FIG. 8Q depicts the daily excreta.
# [7] = Pharmacokinetics and biodistribution of ^14C-labeled ligand in mice; format: in vivo, Swiss-Webster mouse; details: for metabolic degradation: ^14C-labeled ligands
# Excerpt: The pharmacokinetics and biodistribution profile of the ^14C-labeled 3,4,3-LI(1,2-HOPO) were recently characterized in the young Swiss-Webster mouse model. After parenteral injection, the radiolabeled compound was rapidly distributed into high vascular tissues, and highest kidney and liver concentrations were seen as early as 1-hour post-administration. However, those high concentrations […] and more strikingly, about 40% of the administered dose was still in various tissues and organs after 24 hours. […] Nevertheless, retention of the ligand was significant within the first 6 hours after oral administration, which also corroborates the shorter but consequent prophylactic activity of 3,4,3-LI(1,2-HOPO) after oral administration.
# Those differences have been discussed previously and are presumably based on respective ligand and actinide-complex physico-chemical parameters such as solubility, lipophilicity, and ionization constants. […] It is therefore likely that the radionuclide excretion path is ligand-driven.
# (§5) Oral Activity. Both compounds are orally active actinide chelators: when administered orally to mice or beagles after a Pu injection, 3,4,3-LI-1,2-HOPO and 5-LIO-Me-3,2-HOPO can remove up to 80% and 60%, respectively, of the injected Pu.
# [8] = Clearing circulating or newly deposited Pu from mouse tissues compared with CaNa3-DTPA; format: in vivo
# Excerpt: For example, the efficiency of 3,4,3-LI-1,2-HOPO for clearing circulating Pu from mouse tissues ranges from 100 times (skeleton) to 240 times (soft tissues) that of CaNa3-DTPA in five different protocols. In addition, the optimal activity dose of 3,4,3-LI-1,2-HOPO for removing newly deposited Pu from mice is 2.5% of the dose of CaNa3-DTPA used clinically. The tetradentate 5-LIO-Me-3,2-HOPO has potential therapeutic value for Pu, U, Am and Np, and its efficiency for clearing circulating Pu from mouse tissues ranges from 5 times (skeleton) to 15 times (liver) that of CaNa3-DTPA.
# [9] = Oral activity: removal of injected Pu after oral administration; format: in vivo; details: administered orally after a Pu injection, mice or beagles
# Excerpt: as §5
# [10] = ADME studies with ^14C-labeled 3,4,3-LI(1,2-HOPO) in rats (brain); format: in vivo; details: ^14C-labeled ligand; traces in rat brain several days after administration
# Excerpt: (§6) This property is particularly relevant to target Gd deposited in the brain.
# [11] = Decorporation of actinide ions in animal studies, potency versus DTPA; format: in vivo
# Excerpt: as §6
# [12] = single ip dose 1 hour to 16 hours post-contamination
compound,measurement,setting,value
"O=C(NCCCN(CCCCN(CCCNC(=O)c1cccc(=O)n1O)C(=O)c1cccc(=O)n1O)C(=O)c1cccc(=O)n1O)c1cccc(=O)n1O [3,4,3-LI(1,2-HOPO)]",^238Pu skeleton content,[1]; all tested treatment time points,significantly reduced
same,adverse effects at the dose levels used,[1],did not result in any discernable adverse effects
same,sustained action beyond 24 hours after treatment,[1],visible throughout the seven-day excreta collection period
same,^238Pu excretion pathway enhanced by treatment,[1],primarily through the biliary pathway
same,time by which rates of elimination became slower than in control animals,[1],3 days post-treatment
same,decrease in ^238Pu content versus DTPA treatment,[1]; [12],significantly better than those observed after DTPA treatment
same,"^238Pu elimination, total body burden and tissue content versus saline-treated controls",[1]; [12],significant increases in ^238Pu elimination rates
same,^238Pu elimination,[1]; treatment delayed 24 hours to 7 days after contamination,significantly enhanced
same,^238Pu urinary output relative to fecal output,[2]; 30 μmol/kg ip 1 hour prior to contamination,3 fold
same,^238Pu excreted within 3 days,[2]; ip injection 48 hours before contamination,up to 50%
same,"prophylactic window with significant reductions in total body, skeleton and liver ^238Pu",[2],6 h
same,prophylactic window with significant reduction of body and tissue ^238Pu burden,[2],≥ 48 h
same,"full body, skeleton, liver, soft tissue and kidney ^238Pu content versus saline- and DTPA-treated groups",[2]; prophylactic ip treatment,large significant reductions
same,oral bioavailability,[2]; reflected in lack of efficacy for earlier oral treatments,low
same,Log β110,[3],> 41.5
same,Log β110,[4],21.8
same,Log β110,[5],20.5
same,Gd-153 removal,"[6]; 100 μmol/kg ip, 48 hours post-exposure",extremely efficient
same,Gd-153 decorporation,"[6]; 100 μmol/kg ip, up to 24 hours prophylactically",high and almost quantitative level of decorporation
same,excretion pathway,[6],almost-exclusively-fecal
same,Gd-153 removal from kidneys,[6]; compared with DTPA,more efficient than DTPA
same,Gd-153 removal from the skeleton,"[6]; mouse, in vivo",ability at removing Gd-153 from the skeleton
same,metabolic degradation,[7],stable to metabolic degradation
same,administered dose still in various tissues and organs,"[7]; after 24 hours, parenteral injection, ^14C-labeled",about 40%
same,main mode of elimination of the ligand,"[7]; mice, parenteral or oral administration, ^14C-labeled",biliary pathway is the main mode of elimination
same,time of highest kidney and liver concentrations,"[7]; post-administration, parenteral injection, ^14C-labeled",1 h
same,"optimal activity dose for removing newly deposited Pu, as share of the CaNa3-DTPA dose used clinically",[8]; mice,2.5%
same,efficiency for clearing circulating Pu relative to CaNa3-DTPA,[8]; mouse skeleton,100 times
same,efficiency for clearing circulating Pu relative to CaNa3-DTPA,[8]; mouse soft tissues,240 times
same,injected Pu removed,[9],up to 80%
same,blood-brain barrier penetration,[10],can penetrate the blood-brain barrier
same,potency relative to DTPA at decorporating actinide ions,[11],up to 30 times
"diethylenetriamine pentaacetic acid [DTPA, reference compound]",sustained action beyond 24 hours after treatment,[1],visible over several days after treatment
same,^238Pu excretion pathway enhanced by treatment,[1],enhanced urinary excretion
same,prophylactic window with significant reduction of body and tissue ^238Pu burden,[2],6 h
same,excretion pathway,[6],urinary
"Cn1ccc(C(=O)NCCOCCNC(=O)c2ccn(C)c(=O)c2O)c(O)c1=O [5-LIO(Me-3,2-HOPO)]",adverse effects at the dose levels used,[1],did not result in any discernable adverse effects
same,sustained action beyond 24 hours after treatment,[1],did not display significant sustained action
same,^238Pu excretion pathway enhanced by treatment,[1],primarily through the biliary pathway
same,time by which rates of elimination became slower than in control animals,[1],2 days post-treatment
same,"^238Pu elimination, total body burden and tissue content versus saline-treated controls",[1]; [12],significant increases in ^238Pu elimination rates
same,"prophylactic window with significant reductions in total body, skeleton and liver ^238Pu",[2],6 h
same,prophylactic window with significant reduction of body and tissue ^238Pu burden,[2],1 h
same,metabolic degradation,[7],stable to metabolic degradation
same,efficiency for clearing circulating Pu relative to CaNa3-DTPA,[8]; mouse liver,15 times
same,efficiency for clearing circulating Pu relative to CaNa3-DTPA,[8]; mouse skeleton,5 times
same,injected Pu removed,[9],≤ 60%

# — US20190183868A1, “FORMULATIONS AND TREATMENTS EMPLOYING HYDROXYPYRIDONATE ACTINIDE/LANTHANIDE DECORPORATION AGENTS” (priority 2016, published 2019)
